How the values were obtained:
TRPA1 = biological target: T1, TRPA1 (Homo sapiens, UniProt O75762); assay: Test 9: TRPA1 activity test, cells with forced expression of TRPA1; format: cell-based; conditions: for Δ RFU in cells with forced expression of TRPA1: maximum values, average ± standard deviation, concentration after adding per Table 7 (10.2-28.2 ppm); for Δ RFU in cells with forced expression of TRPA1 / Δ RFU in non-transformed cells: ratio of maximum ΔRFU values, concentration after adding per Table 7
T1 construct: expressed in transfected cells; host or cells: HEK293T cells, transient transfection with Lipofectamine 2000
T1 sequence (O75762 whole entry): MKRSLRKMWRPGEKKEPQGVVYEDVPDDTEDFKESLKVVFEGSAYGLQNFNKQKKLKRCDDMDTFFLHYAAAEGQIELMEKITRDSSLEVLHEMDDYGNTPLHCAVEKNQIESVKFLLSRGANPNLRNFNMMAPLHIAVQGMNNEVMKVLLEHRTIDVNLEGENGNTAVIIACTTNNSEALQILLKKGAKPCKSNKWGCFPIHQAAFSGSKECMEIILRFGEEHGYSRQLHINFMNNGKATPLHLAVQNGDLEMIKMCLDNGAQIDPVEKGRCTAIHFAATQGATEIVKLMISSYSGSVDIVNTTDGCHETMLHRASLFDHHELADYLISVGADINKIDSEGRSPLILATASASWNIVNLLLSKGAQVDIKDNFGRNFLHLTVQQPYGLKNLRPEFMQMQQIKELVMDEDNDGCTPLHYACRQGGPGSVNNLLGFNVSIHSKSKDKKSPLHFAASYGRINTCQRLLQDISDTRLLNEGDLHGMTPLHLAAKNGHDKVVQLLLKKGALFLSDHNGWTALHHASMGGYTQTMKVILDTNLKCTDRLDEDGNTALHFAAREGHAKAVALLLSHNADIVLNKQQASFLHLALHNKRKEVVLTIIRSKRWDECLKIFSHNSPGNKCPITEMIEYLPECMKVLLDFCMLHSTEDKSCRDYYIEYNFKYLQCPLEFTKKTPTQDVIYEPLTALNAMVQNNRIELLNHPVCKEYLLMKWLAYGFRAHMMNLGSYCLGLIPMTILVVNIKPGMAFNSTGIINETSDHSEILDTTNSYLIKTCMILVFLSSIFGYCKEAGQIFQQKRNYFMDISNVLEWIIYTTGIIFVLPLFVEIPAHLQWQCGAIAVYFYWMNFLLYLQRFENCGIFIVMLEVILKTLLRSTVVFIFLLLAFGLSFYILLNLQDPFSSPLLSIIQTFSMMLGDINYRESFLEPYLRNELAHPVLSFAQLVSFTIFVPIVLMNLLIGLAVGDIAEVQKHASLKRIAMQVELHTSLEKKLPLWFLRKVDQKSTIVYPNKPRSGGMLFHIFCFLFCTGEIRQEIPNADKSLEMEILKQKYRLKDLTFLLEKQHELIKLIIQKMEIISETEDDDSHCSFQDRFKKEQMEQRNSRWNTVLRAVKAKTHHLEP
Procedure: In the present test, first, human embryonic HEK293T cells were first suspended in DMEM medium to which penicillin-streptomycin (manufactured by Thermo Fisher Scientific, Inc.) and fetal bovine serum (manufactured by Sigma-Aldrich Co. LLC) were added to reach concentrations of 100 Unit/mL, 100 µg/mL, and 10%, respectively, seeded in a 96-well plate at a volume of 100 µL/well, and cultured under conditions of 5% CO2 and 37°C until a cell density reached 70 to 90%.
Thereafter, the DMEM medium in each well was completely removed, to which OptiMEM medium (manufactured by Thermo Fisher Scientific, Inc.) containing the gene transfer reagent Lipofectamine 2000 (manufactured by Thermo Fisher Scientific, Inc.) and a hTRPA1 gene expression plasmid was added at a volume of 50 µL/well. Then, culture was performed under conditions of 37°C and 5% CO2 for approximately 24 hours to transfer the TRPA1 gene into the HEK293T cells. The contents of Lipofectamine 2000 and the hTRPA1 gene expression plasmid per 50 µL of the OptiMEM medium were 0.3 µL and 400 ng, respectively. The TRPA1 gene can be confirmed with a DNA database such as GenBank.
When the density of the HEK293T cells transfected in the described manner (hereinafter, also referred to as "cells with forced expression of TRPA1") reached 90 to 100%, FLIPR Calcium 6 Assay Kit (manufactured by Molecular Devices, LLC.), a calcium-sensitive fluorescent dye, was added at a volume of 50 µL/well, and culture was performed under conditions of 37°C and 5% CO2 for 2 hours. Here, the expression of TRPA1 on cell membranes was confirmed by response to cinnamaldehyde (manufactured by Wako Pure Chemical Industries, Ltd.), which is a known TRPA1 ligand. DMSO was used for dilution of cinnamaldehyde, and the DMSO concentration in each well was set to 0.1% in view of cytotoxicity.
Ethyl caproate was added to HEPES buffer (10 mM HEPES, 130 mM NaCl, 5 mM KCl, 10 mM glucose, 2 mM CaCl2·2H2O, 1.2 mM MgCl2·6H2O, pH = 7.40), and thus a test solution of Example 9 containing ethyl caproate in a concentration of 255 ppm was obtained. For a negative control (N.C.), HEPES buffer was used as a test solution of Comparative Example 6. Measurement of fluorescence intensity for the cells with forced expression of TRPA1 was initiated, and, 20 seconds thereafter, 50-µL portions of each of the test solutions prepared were added to three wells. After the lapse of a predetermined period of time, the measurement of fluorescence intensity was completed, and ratios of fluorescence intensity at each time after addition of a test solution as the average of fluorescence intensity before addition of a test solution was assumed as 1 (hereinafter, also referred to as "RFU (relative fluorescence units)") were determined from measurements of fluorescence intensity. Further, change rates in RFU before and after addition of a test solution (hereinafter, also referred to as "ΔRFU") were determined at each time after addition of a test solution. Fluorescence intensity was measured by using a FlexStation 3 (manufactured by Molecular Devices, LLC.). The measurement of fluorescence intensity was performed at room temperature, and each test solution was used for adding to wells at room temperature, too.
(§1) In the present test, test solutions of Examples 13 to 28 and Comparative Examples 9 to 14 described later were used in place of the test solutions used in First Testing Method of Test 5. Except that, the amount of change in RFU before and after addition of each test solution (ΔRFU) was determined for cells with forced expression of TRPA1 and non-transformed cells with the same method as First Testing Method of Test 5.
The test solutions of Examples 13 to 28 and Comparative Examples 10 to 14 used in the present test were each obtained by adding a compound listed in Table 7 into HEPES buffer. […]

non-transformed cells = assay: Test 9: TRPA1 activity test, non-transformed cells; format: cell-based, human; conditions: maximum values, average ± standard deviation; concentration after adding per Table 7 (10.2-28.2 ppm)
Procedure: Also for HEK293T cells without transfer of the TRPA1 gene (hereinafter, also referred to as "non-transformed cells"), as a reference, 50 µL of the test solution of Example 9 and 50 µL of the test solution of Comparative Example 6 were added with the same method as performed for the cells with forced expression of TRPA1, and ΔRFU was determined.
as §1
The test solutions of Examples 13 to 28 and Comparative Examples 10 to 14 used in the present test were each obtained by adding a compound listed in Table 7 into HEPES buffer. The octanol/water partition coefficient (log Pow) of each compound listed in Table 7 was calculated with XlogP (Shanghai Institute of Organic Chemistry, Chinese Academy of Sciences, http://WWW.sio-ccbg.ac.cn/software/xlogp3/), which is software using the XlogP3 algorithm. Each test solution was added as 50-µL portions to wells, and the concentrations of the compounds were set to concentrations shown in Table 7. HEPES buffer was used as the test solution of Comparative Example 9 for a negative control (N.C.), and added as 50-µL portions to wells.
Table 7 and Figure 18 show average ± standard deviation of maximum values of ΔRFU. In the present test, SoftMax Pro Vr. 6 (manufactured by Molecular Devices, LLC.) and Excel (manufactured by Microsoft Corporation) were used for data analysis.

Row | SMILES | Δ RFU in cells with forced expression of TRPA1 (TRPA1) | Δ RFU in cells with forced expression of TRPA1 / Δ RFU in non-transformed cells (TRPA1) | Δ RFU in non-transformed cells (non-transformed cells)
1 | CCC(=O)OCCC(C)C [Example 17, Isoamyl propionate] | 1.5 ± 0.5 | 12.4 | 0.1 ± 0.0
2 | CCOC(=O)CC [Comparative Example 12, Ethyl propionate, reference compound] | 0.3 ± 0.0 | 0.9 | 0.3 ± 0.1
3 | CCCCC(=O)OCC [Example 19, Ethyl valerate] | 0.6 ± 0.1 | 5.6 | 0.1 ± 0.0
4 | CCCOC(C)=O [Comparative Example 11, Propyl acetate, reference compound] | 0.2 ± 0.0 | 0.8 | 0.3 ± 0.0
5 | CCCCCOC(C)=O [Example 14, Pentyl acetate] | 0.8 ± 0.1 | 12.1 | 0.1 ± 0.0
6 | CCC(C)COC(C)=O (stereo not drawn) [Example 15, 2-Methylbutyl acetate] | 0.6 ± 0.0 | 2.9 | 0.2 ± 0.0
7 | CCCCCCCOC(C)=O [Example 16, Heptyl acetate] | 3.5 ± 0.7 | 127.8 | 0.0 ± 0.0
8 | CC(=O)OCCC(C)C [Example 13, Isoamyl acetate] | 0.7 ± 0.0 | 3.4 | 0.2 ± 0.0
9 | CCCC(=O)OCCC(C)C [Example 18, Isoamyl butyrate] | 2.0 ± 0.4 | 19.3 | 0.1 ± 0.0
10 | CCOC(=O)CCC(C)C [Example 20, Ethyl 4-methylvalerate] | 2.0 ± 0.1 | 27.6 | 0.1 ± 0.0
11 | CCCCCCCC(=O)OCCC(C)C [Comparative Example 13, Isoamyl caprylate, reference compound] | 0.2 ± 0.1 | 0.6 | 0.3 ± 0.0
12 | CCOC(C)=O [Comparative Example 10, Ethyl acetate, reference compound] | 0.2 ± 0.1 | 0.7 | 0.3 ± 0.0

Further lines, with some results ahead:

Row | Δ RFU in cells with forced expression of TRPA1 (TRPA1) | Δ RFU in cells with forced expression of TRPA1 / Δ RFU in non-transformed cells (TRPA1) | SMILES | Δ RFU in non-transformed cells (non-transformed cells)
13 | 0.7 ± 0.1 | 8.3 | CCCCCCCC(=O)OC [Example 27, Methyl caprylate] | 0.1 ± 0.0
14 | 1.2 ± 0.2 | 5.4 | CCCCCC(=O)OC [Example 21, Methyl caproate] | 0.2 ± 0.0
15 | 2.7 ± 1.1 | 12.9 | CCCCCC(=O)OCCC [Example 23, Propyl caproate] | 0.2 ± 0.0
16 | 2.2 ± 0.8 | 12.7 | CCCCCC(=O)OCC [Example 22, Ethyl caproate] | 0.2 ± 0.0
17 | 4.1 ± 0.3 | 29.1 | CCCCCC(=O)OCCCC [Example 24, Butyl caproate] | 0.1 ± 0.0
18 | 2.3 ± 0.4 | 19.0 | CCCCCCCC(=O)OCC [Example 28, Ethyl caprylate] | 0.1 ± 0.0
19 | 3.0 ± 0.2 | 16.2 | CCCCCC(=O)OCCC(C)C [Example 25, Isoamyl caproate] | 0.2 ± 0.0
20 | 0.2 ± 0.0 | 0.8 | CCCCCCCCCCCC(=O)OCC [Comparative Example 14, Ethyl laurate, reference compound] | 0.2 ± 0.0
21 | 3.5 ± 1.1 | 12.8 | CCCCCOC(=O)CCCCC [Example 26, Pentyl caproate] | 0.3 ± 0.1
